Test results published in patent US10166237B2, “Compounds and methods for inducing chondrogenesis” (The Scripps Research Institute, priority 2011, dated 2019).

The compounds below were run on human mesenchymal stem cells (hMSCs) (assay: chondrogenic nodule formation by hMSCs (high throughput screen)). Settings: not given.
Assay type: cell-based
Description: The primary screening assay was based upon the development of chondrogenic nodules. Chondrocytes can grow in monolayer in vitro, but to more closely mimic their native environment in the joint, the cells are routinely cultured in non-adherent conditions such as in pellet cultures or alginate bead suspensions.
In the actual screen of a library of 22,000 structurally diverse heterocycles, 10^4 primary hMSCs were plated in 384 well plates in serum free DMEM. The cells were treated with 5 μM of each compound and incubated for 4 days. […] To facilitate high throughput imaged-based detection, the chondrogenic nodules were stained with […]. The Nile Red stained nodules were quantified on an Acumen eX3 (high content imaging device) by excitation with a 488 laser for rapid detection of the nodules.
Primary hMSCs grown in a 96 well Greiner plates (50,000/well) were incubated for 4 days in the presence of the 5 uM of each DMSO or 100 nM of PRO1. On day 4, the cells were fixed with 4% formalin for 10 minutes, washed and stained with 1 μg/ml of Rhodamine B for 2 hours at room temperature.

Structure (SMILES)	Activity (chondrogenic nodules formed in % of cells)
O=C(Cc1ccc(C(=O)O)cc1)Nc1ccccc1C(=O)O [MS14]	** (chondrogenic nodules formed in at least 25% but less than 50% of cells)
N#Cc1ccc(/C=C/C(=O)c2ccccc2C(=O)O)cc1 [MS15, 2-[(2E)-3-(4-cyanophenyl)prop-2-enoyl]benzoic acid]	*** (chondrogenic nodules formed in at least 50% but less than 75% of cells)
O=C(O)c1ccc(/C=C/C(=O)c2ccccc2C(=O)O)cc1 [MS16]	** (chondrogenic nodules formed in at least 25% but less than 50% of cells)
N#Cc1ccc(C(=O)CC2OC(=O)c3ccccc32)cc1 (stereo not drawn) [MS17-1]	*** (chondrogenic nodules formed in at least 50% but less than 75% of cells)
O=C(O)c1ccc(C(=O)CC2OC(=O)c3ccccc32)cc1 (stereo not drawn) [MS18-1]	** (chondrogenic nodules formed in at least 25% but less than 50% of cells)
N#Cc1ccc(-c2c[nH]c3c(C(=O)O)cccc23)cc1 [MS21]	*** (chondrogenic nodules formed in at least 50% but less than 75% of cells)
N#Cc1ccc(N2Cc3ccccc3C2=O)cc1 [MS26]	** (chondrogenic nodules formed in at least 25% but less than 50% of cells)
N#Cc1ccc(N2C(=O)c3ccccc3C2=O)cc1 [MS28]	** (chondrogenic nodules formed in at least 25% but less than 50% of cells)
O=C(O)c1ccc(N2C(=O)c3ccccc3C2=O)cc1 [MS29]	*** (chondrogenic nodules formed in at least 50% but less than 75% of cells)
O=C(O)c1ccc2c(c1)C(=O)N(Cc1ccccc1C(=O)O)C2=O [MS39]	*** (chondrogenic nodules formed in at least 50% but less than 75% of cells)
O=C(NO)c1ccc(NC(=O)c2ccccc2C(=O)O)cc1 [PA02]	** (chondrogenic nodules formed in at least 25% but less than 50% of cells)
O=C(O)c1ccccc1C(=O)Nc1ccc(-c2nn[nH]n2)cc1 [PA06]	*** (chondrogenic nodules formed in at least 50% but less than 75% of cells)
O=C(O)c1ccccc1C(=O)Nc1ccc(S(=O)(=O)O)cc1 [PA07]	*** (chondrogenic nodules formed in at least 50% but less than 75% of cells)
O=C(O)c1ccccc1C(=O)Nc1ccc(P(=O)(O)O)cc1 [PA08]	** (chondrogenic nodules formed in at least 25% but less than 50% of cells)
O=C(O)c1ccccc1C(=O)Nc1ccc(COc2ccccc2)cc1 [PM02]	** (chondrogenic nodules formed in at least 25% but less than 50% of cells)
O=C(O)c1ccccc1C(=O)Nc1ccc(-c2ccccn2)cc1 [PM05]	** (chondrogenic nodules formed in at least 25% but less than 50% of cells)
NC(=O)NCc1ccc(NC(=O)c2ccccc2C(=O)O)cc1 [PM10]	** (chondrogenic nodules formed in at least 25% but less than 50% of cells)
COC(=O)NCc1ccc(NC(=O)c2ccccc2C(=O)O)cc1 [PM11]	** (chondrogenic nodules formed in at least 25% but less than 50% of cells)
O=C(O)c1ccccc1C(=O)Nc1ccc(-c2ncc[nH]2)cc1 [PM18]	** (chondrogenic nodules formed in at least 25% but less than 50% of cells)

Same assay, conditions: Homo sapiens, Mesenchymal stem cells; first value of the cell (before the slash); read-out: CHONDROGENIC μM EC50

Structure (SMILES)	EC50
O=C(c1ccccc1)c1ccc(NC(=O)c2ccccc2C(=O)O)cc1	> 10 µM
CCCOC(=O)c1ccc(NC(=O)c2ccccc2C(=O)O)cc1	> 10 µM
O=C(O)c1ccccc1C(=O)Nc1ccc(F)cc1	> 10 µM
O=C(O)c1ccccc1C(=O)Nc1ccccc1 [LK49]	5 µM
O=C(O)c1ccc(NC(=O)c2ccccc2C(=O)O)cc1 [LK53]	0.005 µM

What follows are compounds tested on primary bovine chondrocytes (assay: inhibition of cytokine-induced nitric oxide release (Greiss reaction)). Settings: Bos taurus, Chondrocyte; second value of the cell (after the slash); TNFα and oncostatin M, 48 hours; read-out: NO INHIBTION μM IC50.
Assay type: cell-based
Source text: In the screen, hMSCs were used as a surrogate to future targeting of the resident MSCs with the cartilage joint. It was in that setting upon which we identified PRO1. In a joint injury, the primary cell type a therapeutic would have contact with is the chondrocyte. Although cartilage or chondrocyte-targeted screening has not lead to the development of a successful drug modifying osteoarthritis drug (DMOAD) to date, it is believed that a stem cell-based therapeutic would protect and even repair the existing chondrocytes. Therefore, protection of the articular chondrocytes and cartilage from a mature bovine knee was assessed. PRO1 and its analogues were incubated with primary bovine chondrocytes or cartilage explants cultures grown in the presence of TNFα and oncostatin M to mimic the cytokine-induced damage that can occur during OA. In the presence of the cytokine cocktail, in vitro cultured primary chondrocytes released 4-5 fold more nitric oxide (NO) than the untreated chondrocytes (50 μM vs 10 μM) as measured by the Greiss reaction. In cells treated with the cytokine cocktail and PRO1, the small molecule could effectively block the release of NO by up to 70% FIG. 2C). Similarly, in ex vivo treated cartilage explants, cytokine-induced release of glycosaminoglycans (GAG) was reduced by up to 60% by PRO1 (FIG. 2D). Finally, hMSC were grown in pellet culture for 21 days.
Primary hMSCs were plated (10,000/well) in 384-well plates and cultured for 18 days. The cells were fixed with 4% formalin, permeabilized with triton (0.5%), digested with 0.5 mg/ml collagenase II to unwind the collagen fibrils, and then immunostained with an antibody recognizing type II collagen. DAPI (2 μg/ml) was added to visualize the nuclei. The chondrogenic nodules stained positive for type II collagen but lacked expression of type X collagen and osteocalcin, markers for chondrocyte hypertrophy and osteoblasts, respectively (not shown). 10,000 hMSCs (passages 3-5) were plated in Greiner 384-well low-bottom plates on day 1. The cells were allowed to adhere and stimulated for 48 hrs (days 2-3) with the indicated stimuli in MSC growth media (Millipore). The media was then removed and replaced with serum-free DMEM for an additional 16 days. This media was replenished on days 10 and 15 of the assay. Primary bovine chondrocytes were isolated from the articular surfaces from mature knees. After one week of culture, 8,500 cells were trypsinized and plated in Greiner 384-well white clear-bottom plates in growth media. […] 20 μl of the supernatant was mixed with 20 μl of the Greiss reagent and quantitated at 540 nm as described by the Promega kit instructions. Bovine cartilage explants (cut in circular explants in a 96 well plate) were cultured in the presence of 20 ng/ml TNFα and 10 ng/ml oncostatin M to induce GAG release for 72 hours (FIG. 2D). PRO1 was added at the indicated concentrations during the entire 72 hrs. […] Parafin sections were hydrated, incubated in low pH Antigen unmasking solution (Vector) at 90 C for 10 minutes, permeabilized with 0.1% collagenase II (only for the sections stained with type II collagen) for 10 minutes, blocked with CAS block for 10 minutes and then incubated with the primary antibody (type II collagen, aggrecan or Timp1) antibody (Abcam) overnight at 4 C. The antigens were visualized through standard ABC detection methods and developed with DAB. Representative of 3 sections stained/treatment group (independent experiments).

Structure (SMILES)	IC50
O=C(c1ccccc1)c1ccc(NC(=O)c2ccccc2C(=O)O)cc1	2.5 µM
CCCOC(=O)c1ccc(NC(=O)c2ccccc2C(=O)O)cc1	0.624 µM
COC(=O)c1cc(C(=O)O)ccc1C(=O)Nc1ccc(C(=O)O)cc1	> 10 µM
O=C(O)c1ccccc1C(=O)Nc1ccc(S(=O)(=O)N2CCCCC2)cc1	2.7 µM
O=C(Nc1ccc(Cc2ccccc2)cc1)c1cc(Cl)cc(Cl)c1C(=O)O	> 10 µM
C=COc1ccc(NC(=O)c2ccccc2C(=O)O)cc1	> 10 µM
C#CCOC(=O)c1ccccc1C(=O)Nc1ccc(Br)cc1	> 10 µM
COC(=O)c1ccccc1C(=O)Nc1ccccc1	> 10 µM
O=C(Nc1ccccc1)c1ccccc1C(=O)OCc1ccc([N+](=O)[O-])cc1	> 10 µM
C=CCOC(=O)c1ccccc1C(=O)Nc1ccc(I)cc1	> 10 µM
CC1COCCN1C(=O)c1ccc(NC(=O)c2ccccc2C(=O)O)cc1 (stereo not drawn)	2.64 µM
C=C(C)CS(=O)(=O)c1ccc(NC(=O)c2ccccc2C(=O)O)cc1	0.925 µM
CCCCCOc1ccc(NC(=O)c2ccccc2C(=O)O)cc1	> 10 µM
COC(=O)c1ccccc1C(=O)Nc1ccc(C#N)cc1	> 10 µM
CCc1ccc(NC(=O)c2ccc(C(=O)O)cc2C(=O)O)cc1	0.925 µM
CC(C)(C)Oc1ccc(NC(=O)c2ccccc2C(=O)O)cc1	> 10 µM
O=C(O)c1cc(Cl)c(Cl)cc1C(=O)Nc1ccc(Cl)cc1	> 10 µM
COc1ccc(NC(=O)c2ccccc2C(=O)Oc2ccc(OC)cc2)cc1	> 10 µM
O=C(O)c1cc([N+](=O)[O-])ccc1C(=O)Nc1ccc(-c2ccccc2)cc1	> 10 µM
CC(=O)Nc1ccc(NC(=O)c2ccccc2C(=O)O)cc1	> 10 µM
O=C(O)c1ccccc1C(=O)Nc1ccc(F)cc1	0.0125 µM

Structure (SMILES)	IC50
Cc1ccc2nc(-c3ccc(NC(=O)c4ccccc4C(=O)O)cc3)sc2c1	0.987 µM
O=C(O)c1ccccc1C(=O)Nc1ccc(-c2csc(-c3ccccc3)n2)cc1	> 10 µM
O=C(O)c1ccc(NC(=O)c2ccccc2C(=O)O)c(C(=O)O)c1	> 10 µM
O=C(O)c1ccc(C(=O)Nc2ccc(Br)cc2)c(C(=O)O)c1	> 10 µM
O=C(O)c1ccc(C(=O)Nc2ccc(O)cc2)c(C(=O)O)c1	> 10 µM
Cc1ccc(Oc2ccc(NC(=O)c3ccccc3C(=O)O)cc2)cc1	> 10 µM
O=C(O)c1ccccc1C(=O)Nc1ccc(Oc2ccc3ccccc3c2)cc1	> 10 µM
COc1ccc(NC(=O)c2cc(Cl)c(Cl)cc2C(=O)O)cc1	> 10 µM
O=C(O)c1ccccc1C(=O)Nc1ccc(OC(F)F)cc1	> 10 µM
O=C(O)c1ccccc1C(=O)Nc1ccc([N+](=O)[O-])cc1	> 10 µM
CCN(CC)c1ccc(NC(=O)c2ccccc2C(=O)O)cc1	2.98 µM
O=C(O)c1ccccc1C(=O)Nc1ccc(S(=O)(=O)NCc2ccccc2)cc1	> 10 µM
O=C(O)c1ccccc1C(=O)Nc1ccc(Oc2ccccc2)cc1	> 10 µM
C#CCOC(=O)c1ccccc1C(=O)Nc1ccc(Cl)cc1	> 10 µM
O=C(O)c1ccccc1C(=O)Nc1ccc(C(=O)N2CCOCC2)cc1	> 10 µM
CC(C)(C)c1ccc(NC(=O)c2cc(Cl)c(Cl)cc2C(=O)O)cc1	> 10 µM
CCOc1ccc(NC(=O)c2cccc(O)c2C(=O)O)cc1	> 10 µM
O=C(O)c1ccc(C(=O)Nc2ccc(I)cc2)c(C(=O)O)c1	> 10 µM
O=C(O)c1ccccc1C(=O)Nc1ccccc1 [LK49]	> 10 µM
O=C(O)c1ccc(NC(=O)c2ccccc2C(=O)O)cc1 [LK53]	0.146 µM
CC(=O)c1ccc(NC(=O)c2ccccc2C(=O)O)cc1 [drawing 168]	> 10 µM
